Measured values published in patent US20230255972A1, “PYRIMIDINE COMPOUND-CONTAINING COMBINATION TO BE USED IN TUMOR TREATMENT” (TAIHO PHARMACEUTICAL CO., LTD., priority 2020, published 2023).
Read-outs that look alike come from different tables or passages of the source.

Legend:
[1] = tested on: human stomach cancer cell line NCI-N87; assay: Combination (in vivo) of pyrimidine compound and capecitabine, NCI-N87 subcutaneous model
Experimental: Test Example 18 Combination (In Vivo) of Pyrimidine Compound and Capecitabine
A human stomach cancer cell line NCI-N87 was obtained from American Type Culture Collection (ATCC). The cell line was cultured in RPMI-1640 (containing 4.5 g/L glucose, 10 mM HEPES and 1 mM sodium pyruvate) (FUJIFILM Wako Pure Chemical Corporation) medium containing 10% fetal bovine serum (FBS) in a 5% CO2 incubator at 37° C.
The NCI-N87 cells were resuspended at a concentration of 8×10^7 cells/mL in PBS.
An aqueous solution containing 0.1 N HCl and 0.5% HPMC was used as a control.

[2] = tested on: Human stomach cancer-derived tumor cells 4-1ST; conditions: for BWC (%, Mean ± SE) / T/C (%) / TV (mm^3, mean ± SE): Day 15; for BWC (%, Mean ± SE) / T/C (%) / TV (mm^3, mean ± SE) / Number of Deaths: Days 1-14, po
Experimental: Human stomach cancer-derived tumor cells 4-1ST were obtained as fragment tumor from the Central Institute for Experimental Animals. Tumor was removed approximately 1 month after subcutaneous transplantation and passage in a 6 week old male nude mouse (BALB/cAJc1-nu/nu, CLEA Japan, Inc.), and a fragment of approximately 2 mm square was prepared. A transplantation needle was filled with one fragment and subcutaneously inserted from around the right last rib of each nude mouse so as to enter the right back. The tumor was pushed out by pressing the inner syringe and thereby transplanted. For the measurement of the tumor size, electronic calipers were used. […] A tumor volume (TV) was calculated from this major axis and minor axis. A relative tumor volume change percentage (T/C) was calculated from the calculated tumor volume. TV and T/C were calculated according to the following equations:
Tumor Volume (TV)(mm^3)=(Major axis,mm)×(Minor axis,mm)×(Minor axis,mm)/2
Relative tumor volume change percentage (T/C)(%)=(Mean TV of the administration group)/(Mean TV of a control group)×100
For the measurement of the body weight, an animal electronic balance was used. A body weight change percentage on the n^th day (BWCn) from the body weight on 0th day (BW0) and the body weight on the n^th day (BWn) was calculated according to the following equation:
Body weight change percentage BWCn (%)=(BWn−BW0)/BW0×100
Nude mice having TV of 50 to 300 mm^3 were selected and assigned to groups each involving 6 animals by the equal number method [MiSTAT (ver. 2.1)] such that the means of TV were equal among the groups. […] An untreated group was used as a control.
The presence or absence of a combinatorial effect and toxicity was judged from the tumor sizes and the body weights on the grouping day (Day 0) and the judgement day (Day 15). During the administration period, the body weight was measured every day for calculation of the amount of the dosing solution.

[3] = day 15, Example 11 6.25 mg/kg/day, day 1-14, p.o.

## C=CC(=O)N1C[C@H](n2c(C#CC3CC3)c(C(=O)N[C@H](C)c3ccccc3)c3c(N)ncnc32)C[C@@H]1C [Example 11, 7-((3R,5S)-1-acryloyl-5-methylpyrrolidin-3-yl)-4-amino-6-(cyclopropylethynyl)-N—((R)-1-phenylethyl)-7H-pyrrolo[2,3-d]pyrimidine-5-carboxamide]
[1]; Example 11 6.25 mg/kg/day, day 1-14, p.o.
  Number of Death: 0
[1]; capecitabine and Example 11 po once a day, Days 1-14
  TV on Day 15 versus control group (Dunnett's test): significantly lower TV
[1]; [3]
  T/C (%): 47%
  Tumor volume (mm^3) day 15 Mean ± S.E.: 272.43 ± 22.22 mm^3
[1]; mouse, in vivo, po, 6.25 mg/kg/day
  BWC (%) Mean ± S.E.: 6.3 ± 0.9%
[2]; Example 11 6.25 mg/kg/day
  BWC (%, Mean ± SE): 3.69 ± 0.75%
  T/C (%): 22.0%
  TV (mm^3, mean ± SE): 448.7 ± 79.0 mm^3
  Number of Deaths: 0
[2]; Example 11 12.5 mg/kg/day
  BWC (%, Mean ± SE): 3.79 ± 1.07%
  T/C (%): 3.0%
  TV (mm^3, mean ± SE): 62.0 ± 6.9 mm^3
  Number of Deaths: 0
[2]; trastuzumab iv Days 1 and 8 (except for the 20 mg/kg/day group), Example 11 po Days 1-14
  TV on Day 15 versus control group (Dunnett's test): significantly lower TV
